Reference: PMC9571264 (Molecules, 2022)
Values after ≈ are worked out from the molar mass of the structure shown. Like-named read-outs stand apart in the source and are kept apart here.

Legend:
Leukemia Cancer HL60 = experiment: MTT cytotoxicity assay, HL60; type: cell-based; settings: Homo sapiens, HL-60, 48 h, read-out: IC50 (µM) ± SEM, Leukemia Cancer HL60
Protocol: (§1) Cytotoxic activities of the synthesized derivatives were screened against leukemia (HL60), liver (HepG2), breast (MCF-7), and lung (A549) cancer cell lines and non-cancerous THLE2 and WISH cells at different concentrations [0.01–100 µM] for 48 h using the MTT assay (Table 1).
(§2) Human promyelocytic leukemia ”HL-60”, human hepatocellular carcinoma “HepG2”, human breast cancer “MCF-7”, human lung cancer “A549” cell lines, and two normal cell lines, THLE-2 as normal adult liver epithelial cells and WISH as normal epithelial cells, were obtained from American Type Culture Collection “Rockville, MD, USA”.
(§3) According to the manufacturer’s protocol, the cells were seeded in 96-well plates at a concentration of 5 × 10^4 cells per well (200 µL). Different concentrations of the tested compounds were used to test the cytotoxicity. […] A non-linear regression of curve fit was used to calculate the IC50.

Lung Cancer A549 = experiment: MTT cytotoxicity assay, A549; type: cell-based; settings: Homo sapiens, 48 h, read-out: IC50 (µM) ± SEM, Lung Cancer A549
Protocol: as §1, §2, §3

Breast Cancer MCF-7 = experiment: MTT cytotoxicity assay, MCF-7; type: cell-based; settings: Homo sapiens, MCF7, 48 h, read-out: IC50 (µM) ± SEM, Breast Cancer MCF-7
Protocol: as §1, §2, §3

Liver Cancer HepG2 = experiment: MTT cytotoxicity assay, HepG2; type: cell-based, human; settings: read-out: IC50 (µM) ± SEM, Liver Cancer HepG2
Protocol: as §1, §2, §3

HepG2 [1] = settings: ref [37]; cited from earlier work
HepG2 [2] = tested on: HepG2; design: method as in PMID 24148965, PMID 26890810; settings: ref [41],[43]; read-out: IC50 on HepG2 (apoptotic effect); cited from earlier work
[3] = tested on: non-small-cell lung cancer HOP-92; design: method as in PMID 21439691; settings: ref [39]; cited from earlier work
colon cancer HCC-2998 = tested on: colon cancer HCC-2998; design: method as in PMID 21439691; settings: ref [39]; cited from earlier work
leukemia CCRF-CEM = tested on: leukemia CCRF-CEM; design: method as in PMID 21439691; settings: ref [39]; cited from earlier work
Normal Liver THLE2 = experiment: MTT cytotoxicity assay, normal THLE2; type: cell-based; settings: Homo sapiens, THLE-2, 48 h, read-out: IC50 (µM) ± SEM, Normal Liver THLE2
Protocol: as §1, §2, §3

[4] = tested on: promyelocytic leukemia cell line (HL60); design: method as in PMID 19322800; settings: ref [38]; cited from earlier work

**Q.** With `Cc1cc(=O)oc2cc(O)ccc12` [Compound 3, 7-Hydroxy-4-methylcoumarin] as the molecule, how does the IC50 (Leukemia Cancer HL60) read?
**A.** 42.55 ± 0.22 µM

**Q.** And the IC50 (Lung Cancer A549)?
**A.** 16.5 ± 1.98 µM

**Q.** And the IC50 (Breast Cancer MCF-7)?
**A.** 29.3 ± 1.02 µM

**Q.** And the IC50 (Liver Cancer HepG2; Homo sapiens, HepG2, 48 h)?
**A.** 95.7 ± 1.13 µM

**Q.** With `COc1cccc2c1C(=O)c1c(O)c3c(c(O)c1C2=O)C[C@@](O)(C(=O)CO)C[C@@H]3O[C@H]1C[C@H](N)[C@H](O)[C@H](C)O1` [doxorubicin] as the molecule, how does the “IC50 against HepG2” value (HepG2 [1]) read?
**A.** 2.11 ± 0.13 µg/mL (≈ 3.88 µM)

**Q.** Which results are given for `O=C(O)/C=C/c1ccccc1` [Compound 6, cinnamic acid]?
**A.** IC50 (Leukemia Cancer HL60): 88.21 ± 0.51 µM; IC50 (Lung Cancer A549): 27.6 ± 1.95 µM; IC50 (Breast Cancer MCF-7): 28.6 ± 0.91 µM; IC50 (Liver Cancer HepG2; Homo sapiens, HepG2, 48 h): 36.58 ± 0.19 µM

**Q.** With `C/C(=N\NC(=O)COc1ccc2c(C)cc(=O)oc2c1)c1ccc(Cl)cc1` [III] as the molecule, how does the “IC50 against HepG2” value (HepG2 [1]) read?
**A.** 2.84 ± 0.48 µg/mL (≈ 7.38 µM)

**Q.** Which IC50 (HepG2 [2]) does the source give for `O=C/C=C/c1ccccc1` [cinnamaldehyde] here?
**A.** 9.76 ± 0.67 µM

**Q.** Which melting point does the source give for `Cc1cc(=O)oc2cc(OC(=O)/C=C/c3ccccc3)ccc12` [Compound 8a, (2E)-4-Methyl-2-oxo-2H-chromen-7-yl Cinnamate] here?
**A.** 96 °C

**Q.** And the IC50 (Leukemia Cancer HL60)?
**A.** 34.8 ± 0.64 µM

**Q.** What about the IC50 (Lung Cancer A549) of the same molecule?
**A.** 19.6 ± 0.89 µM

**Q.** And the IC50 (Breast Cancer MCF-7)?
**A.** 39.3 ± 1.69 µM

**Q.** And the IC50 (Liver Cancer HepG2; 48 h)?
**A.** 75.2 ± 1.39 µM

**Q.** Which “GI, non-small-cell lung cancer HOP-92” value [3] does the source give for `CC(=O)c1cc2c(C)cc(=O)oc2cc1OCCN1CCOCC1` [VI] here?
**A.** 237.8 µM

**Q.** What about the “GI, colon cancer HCC-2998” value (colon cancer HCC-2998) of the same molecule?
**A.** 341.4 µM

**Q.** What about the “GI, leukemia CCRF-CEM” value (leukemia CCRF-CEM) of the same molecule?
**A.** 627.1 µM

**Q.** With `Cc1c(Br)c(=O)oc2cc(OC(=O)/C=C/c3ccccc3)ccc12` [Compound 8c, (2E)-3-bromo-4-methyl-2-oxo-2H-chromen-7-yl cinnamate] as the molecule, how does the melting point read?
**A.** 170 °C

**Q.** What about the IC50 (Leukemia Cancer HL60) of the same molecule?
**A.** 48.1 ± 0.88 µM

**Q.** And the IC50 (Lung Cancer A549)?
**A.** 24.3 ± 0.37 µM

**Q.** What about the IC50 (Breast Cancer MCF-7) of the same molecule?
**A.** 67.3 ± 2.03 µM

**Q.** What about the IC50 (Liver Cancer HepG2; Homo sapiens, HepG2, 48 h) of the same molecule?
**A.** 17.4 ± 0.19 µM

**Q.** And the IC50 (Normal Liver THLE2)?
**A.** 124 ± 2.12 µM

**Q.** With `Cc1cc(=O)oc2cc(OCC(=O)N/N=C/c3ccc(Br)cc3)ccc12` [IV] as the molecule, how does the “IC50 against HepG2” value (HepG2 [1]) read?
**A.** 4.67 ± 0.78 µg/mL (≈ 11.2 µM)

**Q.** For `CN[C@@H]1C[C@H]2O[C@@](C)([C@@H]1OC)n1c3ccccc3c3c4c(c5c6ccccc6n2c5c31)C(=O)NC4` [Staurosporine, reference compound], which IC50 (Lung Cancer A549) is on record?
**A.** 3.7 ± 0.09 µM

**Q.** And the IC50 (Breast Cancer MCF-7)?
**A.** 3.06 ± 0.42 µM

**Q.** With `Cc1cc(=O)oc2cc(OC(C)/C=C/C3=CC(=O)C(C)(C)O3)ccc12` (centres unmarked) [V] as the molecule, how does the GI50 [4] read?
**A.** 0.5 ± 0.02 µM
